Data: patent US20150258139A1, “METHODS FOR TREATMENT OF CANCER USING LIPOPLATIN” (REGULON, INC., priority 2012, published 2015)
Several values for one entry are separate records, joined by “and”; a condition that tells them apart may be missing. Equal values may be shown once. Read-outs that look alike come from different tables or passages of the source.

Experiments:
F98 glioma tumor [1] = assay type: in vivo; details: drug alone
F98 glioma tumor [2] = test: Mean survival time of F98 glioma bearing Fischer rats, platinum drugs combined with Gamma Knife irradiation; assay type: in vivo
F98 glioma tumor [3] = test system: F98 glioma tumor
[4] = test system: metastatic colorectal cancer; details: cited from earlier work
pancreatic cancer = details: gemcitabine alone; cited from earlier work
[5] = test system: Nonmetastatic Castrate-Resistant Prostate Cancer; details: monotherapy (Ogita et al); cited from earlier work
[6] = IA + BBBD, 24 h after administration, ± SD
[7] = IA + BBBD, 24 h after administration, ± SD, listed as carboplatin
[8] = IA, 24 h after administration, ± SD
[9] = IA, 24 h after administration, ± SD, listed as carboplatin
[10] = IV, 24 h after administration, ± SD

With `N.N.O=C([O-])C1(C(=O)[O-])CCC1.[Pt+2]` [Carboplatin] the mean survival time (F98 glioma tumor [1]; IA + opening BBB) was 33.7 ± 2.0 days, the mean survival time (F98 glioma tumor [1]; IA, sham group 22.5±0.6 days) was 31.0 ± 3.6 days and the mean survival time (F98 glioma tumor [1]; IV, sham group 22.6±1.2 days) was “did not significantly increase”. For the same compound, the mean survival time (F98 glioma tumor [2]; IA + opening of BBB + radiation 15 Gy, sham group+IR 34.5±2.2 days) was 38.0 ± 6.4 days, the “increase of mean survival time compared to the sham IR group” value (F98 glioma tumor [2]; IA + radiation 15 Gy) was 10.7 days and the mean survival time (F98 glioma tumor [2]; IA + radiation 15 Gy, sham group+IR 34.0±6.1 days) was 44.7 ± 6.1 days. For the same compound, the “increase of accumulation in cytoplasm of tumor cells by opening of the BBB” value (F98 glioma tumor [3]; IA + BBBD vs IA) was 4.7 fold, the “increase of accumulation in nucleus of tumor cells by opening of the BBB” value (F98 glioma tumor [3]; IA + BBBD vs IA) was 18 fold and the “Platinum in brain tumor” value (F98 glioma tumor [3]; [6]) was 987 ± 621 ng of platin/g tissue. The “Platinum in cytoplasm of tumor cells” value (F98 glioma tumor [3]; [6]) was 398 ± 191 ng of platin/g tissue, the “Platinum in healthy contra lateral brain” value (F98 glioma tumor [3]; [6]) was 242 ± 59 ng of platin/g tissue and the “Platinum in nucleus of tumor cells” value (F98 glioma tumor [3]; [6]) was 160 ± 85 ng of platin/g tissue. The “Platinum in cytoplasm of tumor cells” value (F98 glioma tumor [3]; [7]) was 398±191 ng of platin/g tissue, the “Platinum in nucleus of tumor cells” value (F98 glioma tumor [3]; [7]) was 160±85 ng of platin/g tissue and the “effect of the IA route on tumor uptake and specificity” value (F98 glioma tumor [3]; IA vs IV, tumor vs contra lateral brain) was “improved both the tumor uptake and specificity”. For the same compound, the “Platinum in brain tumor” value (F98 glioma tumor [3]; [8]) was 469 ± 241 ng of platin/g tissue, the “Platinum in cytoplasm of tumor cells” value (F98 glioma tumor [3]; [8]) was 84 ± 61 ng of platin/g tissue and the “Platinum in healthy contra lateral brain” value (F98 glioma tumor [3]; [8]) was 70 ± 48 ng of platin/g tissue. The “Platinum in nucleus of tumor cells” value (F98 glioma tumor [3]; [8]) was 9 ± 7 ng of platin/g tissue, the “Platinum in cytoplasm of tumor cells” value (F98 glioma tumor [3]; [9]) was 84±61 ng of platin/g tissue and the “Platinum in nucleus of tumor cells” value (F98 glioma tumor [3]; [9]) was 9±7 ng of platin/g tissue. The “uptake in the nucleus of cancer cells” value (F98 glioma tumor [3]; IV route) was roughly 4 ng platinum/g tissue, the “Platinum in brain tumor” value (F98 glioma tumor [3]; [10]) was 145 ± 27 ng of platin/g tissue and the “Platinum in cytoplasm of tumor cells” value (F98 glioma tumor [3]; [10]) was 13 ± 4 ng of platin/g tissue. For the same compound, the “Platinum in healthy contra lateral brain” value (F98 glioma tumor [3]; [10]) was 27 ± 2 ng of platin/g tissue and the “Platinum in nucleus of tumor cells” value (F98 glioma tumor [3]; [10]) was 0.5 ± 0.8 ng of platin/g tissue.
For `N.N.[Cl][Pt][Cl]` [Cisplatin], the mean survival time (F98 glioma tumor [1]; IA, sham group 22.5±0.6 days) was 13.3 ± 0.1 days, the mean survival time (F98 glioma tumor [1]; IV, sham group 22.6±1.2 days) was 18.1 ± 0.9 days and the “Platinum in cytoplasm of tumor cells” value (F98 glioma tumor [3]; rat, in vivo, iv) was 251 ± 48 ng of platin/g tissue. The “Platinum in nucleus of tumor cells” value (F98 glioma tumor [3]; rat, in vivo, iv) was 67 ± 14 ng of platin/g tissue and the “uptake in the nucleus of cancer cells” value (F98 glioma tumor [3]; rat, in vivo, iv) was 67±14 ng platinum/g tissue.
In the case of `O=C1[O][Pt]2([NH][C@@H]3CCCC[C@H]3[NH]2)[O]C1=O` [Oxaliplatin], the mean survival time (F98 glioma tumor [1]; IA, sham group 22.5±0.6 days) is reported as 22.0 ± 4.7 days, the mean survival time (F98 glioma tumor [1]; IV, sham group 22.6±1.2 days) is reported as “did not significantly increase” and the “uptake in the nucleus of cancer cells” value (F98 glioma tumor [3]; IV route) is reported as 78±8 ng platinum/g tissue. For the same compound, the “Platinum in cytoplasm of tumor cells” value (F98 glioma tumor [3]; [10]) was 292 ± 128 ng of platin/g tissue, the “Platinum in nucleus of tumor cells” value (F98 glioma tumor [3]; [10]) was 78 ± 8 ng of platin/g tissue and the “objective responses, % of patients” value ([4]; 2 small trials of first-line monotherapy (Wiseman et al)) was 20% and 24%. For the same compound, the response rate ([4]; first line monotherapy, metastatic colorectal cancer patients) was 24%, the “objective responses, % of patients” value ([4]; monotherapy as second-line option (Wiseman et al)) was “about 10%” and the overall response rate ([4]; monotherapy, second line, colorectal cancer, Japanese study (Boku et al)) was 9%.
For `Nc1ccn([C@@H]2O[C@H](CO)[C@@H](O)C2(F)F)c(=O)n1` [gemcitabine], the one-year survival (pancreatic cancer) is listed as 17%.
In the case of “Avastin®: humanized monoclonal antibody that binds to and inhibits human vascular endothelial growth factor (VEGF)”, the efficacy [5] is listed as “marginal efficacy”.
